Drawing on patent US20250145632A1, “Pyrimidine Heterocyclic Compound, Preparation Method Thereof and use Thereof in Medicine” (INSILICO MEDICINE IP LIMITED, priority 2021, published 2025), this text covers IC50 for 19 compounds.

Assay [1] deals with HCC70 human breast ductal cancer cells. Put plainly: HCC70 tumor cell proliferation inhibition (CellTiter-Glo). Format: cell-based. To be noted: 3 d culture. As for the experimental part:
HCC70 was purchased from ATCC; article No.: CRL-2315; RPMI1640 was purchased from Gibco; article No.: 11875-093; Pancreatin (including EDTA) was purchased from Gibco; article No.: 25200-072; FBS was purchased from Gibco; article No.: 10099-141C; CellTiter-Glo was purchased from Promega; article No.: G7573; DMSO was purchased from VWR AMRESCO; article No.: 0231-500ML; Staurosporine was purchased from Selleck; article No.: S1421; a cell counter was purchased from CHEMOMETEC; model: NC-200; and a microplate reader was purchased from PerkinElmer; Model: Envison.
(§1) HCC70 was human breast ductal cancer cells cultured in an RPMI-1640 culture medium containing 10% FBS. Cells in logarithmic phase were taken, and the cells were subjected to digesting, collecting and counting with pancreatin-EDTA, 2000 HCC70 cells/well were inoculated in a 384-well cell plate, and were cultured in 5% CO2 overnight. A 1000× compound stock solution with 3.16 times of gradient concentration was prepared with DMSO, and was diluted 100 times to 10× compound stock solution with a culture medium, and 10× compound stock solution was added into each cell culture well on the next day after cell inoculation, wherein the final concentration was 1×, and the DMSO content was 0.1%. The cell group was treated with DMSO as an experimental control (control), and the cell group was treated with 5 μM of Staurosporine as a blank control (blank).
For orientation: In ATP-based viability assays light output follows the ATP content of the culture.

For assay [2], the system named is OVCAR-3 human ovarian adenocarcinoma cells. The experiment in a line: OVCAR-3 tumor cell proliferation inhibition (CellTiter-Glo). It is filed as cell-based. Conditions: 3 d culture. The method, then: OVCAR-3 was purchased from ATCC; article No.: HTB-161; RPMI1640 was purchased from Gibco; article No.: 11875-093; Pancreatin (including EDTA) was purchased from Gibco; article No.: 25200-072; FBS was purchased from Gibco; Article No.: 10091-148; CellTiter-Glo was purchased from Promega; article No.: G7573; Bovine insulin was purchased from absin; article No.: abs9169; DMSO was purchased from VWR AMRESCO; article No.: 0231-500ML; Staurosporine was purchased from Selleck; article No.: S1421; a cell counter was purchased from CHEMOMETEC; model: NC-200; and a microplate reader was purchased from PerkinElmer; Model: Envison.
as §1, with “OVCAR-3” for “HCC70”, “ovarian adenocarcinoma” for “breast ductal cancer”, “20% FBS and 0.01 mg/mL of Bovine insulin.” for “10% FBS.”

`CN1C[C@H](F)CCN(C)[C@H]2CC[C@@H](C2)Nc2ncc(C(F)(F)F)c(n2)-c2c[nH]c3c(P(C)(C)=O)c(ccc23)C1=O` [Compound Z78, (4^1S,4^3S,8R)-1^7-(dimethylphosphoryl)-8-fluoro-5,10-dimethyl-2^5-(trifluoromethyl)-1^1H-3,5,10-triaza-1(3,6)-indola-2(4,2)-pyrimidina-4(1,3)-cyclopentanacycloundecaphan-11-one]: the values for the IC50 in assay [1] and in assay [2] were 44 nM and 62.6 nM, respectively.

Take `CN1CCOCCNC2CCC(C2)Nc2ncc(C(F)(F)F)c(n2)-c2c[nH]c3c(S(C)(=O)=O)c(ccc23)C1=O` (stereo not drawn) [Compound Z72, (4^1S,4^3S)-11-methyl-1^7-(methylsulfonyl)-2^5-(trifluoromethyl)-1^1H-8-oxa-3,5,11-triaza-1(3,6)-indola-2(4,2)-pyrimidina-4(1,3)-cyclopentanacyclododecaphan-12-one]: the half-maximal inhibitory concentration (IC50) in assay [1] was 869 nM. On the same count and under the same terms, as for `CN1CCCCN(C)[C@H]2CC[C@@H](C2)Nc2ncc(C(F)(F)F)c(n2)-c2c[nH]c3c(P(C)(C)=O)c(ccc23)C1=O` [Compound Z27, (4^1S,4^3S)-1^7-(dimethylphosphoryl)-5,10-dimethyl-2^5-(trifluoromethyl)-1^1H-3,5,10-triaza-1(3,6)-indola-2(4,2)-pyrimidina-4(1,3)-cyclopentanacycloundecaphan-11-one], the figure is 9.7 nM. As to `CN1CC(F)(F)CCN(C)C2CCC(C2)Nc2ncc(C(F)(F)F)c(n2)-c2ccc3c(c[nH]c3n2)C1=O` (stereo not drawn) [Compound Z93, (4^1S,4^3S)-8,8-difluoro-5,10-dimethyl-2^5-(trifluoromethyl)-1^1H-3,5,10-triaza-1(3,6)-pyrrolo[2,3-b]pyridine-2(4,2)-pyrimidina-4(1,3)-cyclopentanacycloundecaphan-11-one], the half-inhibitory concentration (IC50) was 5210 nM in assay [1] and more than 10000 nM in assay [2]. The like results for `CN1CCCCNC2CCC(C2)Nc2ncc(C(F)(F)F)c(n2)-c2c[nH]c3c(P(C)(C)=O)c(ccc23)C1=O` (stereo not drawn) [Compound Z62, (41 S,4^3S)-1^7-(dimethylphosphoryl)-10-methyl-2^5-(trifluoromethyl)-1^1H-3,5,10-triaza-1(3,6)-indola-2(4,2)-pyrimidina-4(1,3)-cyclopentanacycloundecaphan-11-one] were, in that order, 24.6 nM and 15.9 nM. The like results for `CN1CCOCCN[C@H]2CC[C@@H](C2)Nc2ncc(C(F)(F)F)c(n2)-c2c[nH]c3c(P(C)(C)=O)c(ccc23)C1=O` [Compound Z64, (4^1S,4^3S)-1^7-(dimethylphosphoryl)-11-methyl-2^5-(trifluoromethyl)-1^1H-8-oxa-3,5,11-triaza-1(3,6)-indola-2(4,2)-pyrimidina-4(1,3)-cyclopentanacyclododecaphan-12-one] were, in that order, 42.8 nM and 98.6 nM. On to `CN1C[C@H](F)CCN[C@H]2CC[C@@H](C2)Nc2ncc(C(F)(F)F)c(n2)-c2c[nH]c3c(P(C)(C)=O)c(ccc23)C1=O` (single isomer, unassigned) [Compound Z76], for which the IC50 in assay [1] came to 21.9 nM; in assay [2] it was 31.5 nM.

In assay [1], `CP(C)(=O)c1c2ccc3c(c[nH]c13)-c1nc(ncc1C(F)(F)F)N[C@H]1CC[C@@H](C1)NCCCCCCNC2=O` [Compound Z59, (4^1S,4^3S)-1^7-(dimethylphosphoryl)-2^5-(trifluoromethyl)-1^1H-3,5,12-triaza-1(3,6)-indola-2(4,2)-pyrimidina-4(1,3)-cyclopentanacyclotridecaphan-13-one] registered an IC50 of 422 nM. That is a sub-micromolar value. In assay [1], `CN1CCCCNC(=O)c2ccc3c(c[nH]c3c2P(C)(C)=O)-c2nc(ncc2C(F)(F)F)N[C@H]2CC[C@H]1C2` [Compound Z16, (4^1S,43S)-1^7-(dimethylphosphoryl)-5-methyl-2^5-(trifluoromethyl)-1^1H-3,5,10-triaza-1(3,6)-indola-2(4,2)-pyrimidina-4(1,3)-cyclopentanacycloundecaphan-11-one] returned a half-inhibitory concentration (IC50) of 23 nM. Same read-out and setting: as for `O=C1NCCCCN[C@H]2CCC(C2)Nc2ncc(C(F)(F)F)c(n2)-c2c[nH]c3c(Cl)c1ccc23` [Compound Z11, (4^1S,43S)-1^7-chloro-2^5-(trifluoromethyl)-1^1H-3,5,10-triaza-1(3,6)-indola-2(4,2)-pyrimidina-4(1,3)-cyclopentanacycloundecaphan-11-one], the figure is 186 nM; as for `CN1CCOCCNC(=O)c2ccc3c(c[nH]c3c2P(C)(C)=O)-c2nc(ncc2C(F)(F)F)NC2CCC1C2` [Compound Z60, (4^1S,43S)-17-(dimethylphosphoryl)-5-methyl-2^5-(trifluoromethyl)-1^1H-8-oxa-3,5,11-triaza-1(3,6)-indola-2(4,2)-pyrimidina-4(1,3)-cyclopentanacyclododecaphan-12-one], 89 nM; as for `CP(C)(=O)c1c2ccc3c(c[nH]c13)-c1nc(ncc1C(F)(F)F)N[C@H]1CC[C@@H](C1)NCCC(F)(F)CNC2=O` [Compound Z19, (4^1S,43S)-17-(dimethylphosphoryl)-8,8-difluoro-2^5-(trifluoromethyl)-1^1H-3,5,10-triaza-1(3,6)-indola-2(4,2)-pyrimidina-4(1,3)-cyclopentanacycloundecaphan-11-one], 15.4 nM. Same read-out and setting: next, `CC1CCCNC(=O)c2ccc3c(c[nH]c3c2P(C)(C)=O)-c2nc(ncc2C(F)(F)F)N[C@H]2CC[C@@H](C2)N1` (stereo partly drawn) [Compound Z58, (4^1S,4^3S)-1^7-(dimethylphosphoryl)-6-methyl-2^5-(trifluoromethyl)-1^1H-3,5,10-triaza-1(3,6)-indola-2(4,2)-pyrimidina-4(1,3)-cyclopentanacycloundecaphan-11-one]: 233 nM. Same read-out and setting: next, `CP(C)(=O)c1c2ccc3c(c[nH]c13)-c1nc(ncc1C(F)(F)F)N[C@H]1CC[C@@H](C1)NCCCCCNC2=O` [Compound Z6, (41 S,4^3S)-1^7-(dimethylphosphoryl)-2^5-(trifluoromethyl)-1^1H-3,5,11-triaza-1(3,6)-indola-2(4,2)-pyrimidina-4(1,3)-cyclopentanacyclododecaphan-12-one]: 222 nM; `CP(C)(=O)c1c2ccc3c(c[nH]c13)-c1nc(ncc1C(F)(F)F)N[C@H]1CCC[C@@H](C1)NCCCCNC2=O` [Compound Z9, (4^1S,4^3S)-1^7-(dimethylphosphoryl)-2^5-(trifluoromethyl)-1^1H-3,5,10-triaza-1(3,6)-indola-2(4,2)-pyrimidina-4(1,3)-cyclohexanacycloundecaphan-11-one]: 99.8 nM; “(4^3S)-1^7-(dimethylphosphoryl)-2^5-(trifluoromethyl)-1^1H-3,11-diaza-1(3,6)-indola-2(4,2)-pyrimidina-4(3,1)-piperidinacyclododecaphan-12-one [Compound Z61]”: 390 nM. With `CP(C)(=O)c1c2ccc3c(c[nH]c13)-c1nc(ncc1C(F)(F)F)N[C@H]1CC[C@@H](C1)NCCCNC2=O` [Compound Z10, (4^1S, 4^3S)-1^7-(dimethylphosphoryl)-2^5-(trifluoromethyl)-1^1H-3,5,9-triaza-1(3,6)-indola-2(4,2)-pyrimidina-4(1,3)-cyclopentanacyclodecaphan-10-one], in assay [1], the IC50 came out at 162 nM. `CN1CCC(F)CN(C)C2CC[C@@H](C2)Nc2ncc(C(F)(F)F)c(n2)-c2c[nH]c3c(P(C)(C)=O)c(ccc23)C1=O` (stereo partly drawn) [Compound Z88, (4^1S)-1^7-(dimethylphosphoryl)-7-fluoro-5,10-dimethyl-2^5-(trifluoromethyl)-1^1H-3,5,10-triaza-1(3,6)-indola-2(4,2)-pyrimidina-4(1,3)-cyclopentanacycloundecaphan-11-one]: in assay [1], the IC50 came to 241 nM. The same measure, in the same setting: as for `CN1CCC(F)CN(C)C2CC[C@@H](C2)Nc2ncc(C(F)(F)F)c(n2)-c2c[nH]c3c(P(C)(C)=O)c(ccc23)C1=O` (stereo partly drawn) [Compound Z87, (4^1S)-1^7-(dimethylphosphoryl)-7-fluoro-5,10-dimethyl-2^5-(trifluoromethyl)-1^1H-3,5,10-triaza-1(3,6)-indola-2(4,2)-pyrimidina-4(1,3)-cyclopentanacycloundecaphan-11-one], the figure is 243 nM.

What is called IC50 is the concentration at which inhibition is half-maximal. A high value points to weaker potency.
